Data reported in patent publication US10730884B2, “Substituted indole compound derivatives as dengue viral replication inhibitors” (Janssen Pharmaceuticals, Inc., priority 2016, dated 2020).
Like-named read-outs stand apart in the source and are kept apart here.

Key:
[1] = test system: DENV-2 16681 strain; test: DENV-2 antiviral assay (eGFP-labeled virus, Vero cells); format: cell-based, Dengue virus; settings: for EC50: DENV-2 16681 eGFP, Vero cells, MOI 0.5, 3 days; for SI: SI=CC50/EC50, DENV-2 antiviral assay
Method: The antiviral activity of all the compounds of the invention was tested against the DENV-2 16681 strain which was labeled with enhanced green fluorescent protein (eGPF). The culture medium consists of minimal essential medium supplemented with 2% of heat-inactivated fetal calf serum, 0.04% gentamycin (50 mg/mL) and 2 mM of L-glutamine. Vero cells, obtained from ECACC, were suspended in culture medium and 25 μL was added to 384-well plates (2500 cells/well), which already contain the antiviral compounds. Typically, these plates contain a 5-fold serial dilution of 9 dilution steps of the test compound at 200 times the final concentration in 100% DMSO (200 nL). […] Finally, each plate contains wells which are assigned as virus controls (containing cells and virus in the absence of compound), cell controls (containing cells in the absence of virus and compound) and medium controls (containing medium in the absence of cells, virus and compounds). To the wells assigned as medium control, 25 μL of culture medium was added instead of Vero cells. Once the cells were added to the plates, the plates were incubated for 30 minutes at room temperature to allow the cells to distribute evenly within the wells. Next, the plates were incubated in a fully humidified incubator (37° C., 5% CO2) until the next day. Then, DENV-2 strain 16681, labeled with eGFP, was added at a multiplicity of infection (MOI) of 0.5. Therefore, 15 μL of virus suspension was added to all the wells containing test compound and to the wells assigned as virus control. In parallel, 15 μL of culture medium was added to the medium and cell controls. Next, the plates were incubated for 3 days in a fully humidified incubator (37° C., 5% CO2). At the day of the read out, the eGFP fluorescence was measured using an automated fluorescence microscope at 488 nm (blue laser). Using an in-house LIMS system, inhibition dose response curves for each compound were calculated and the half maximal effective concentration (EC50) was determined. Therefore, the percent inhibition (I) for every test concentration is calculated using the following formula: I=100*([…])/(SVC−SCC); ST, SCC and SVC are the amount of eGFP signal in the test compound, cell control and virus control wells, respectively. The EC50 represents the concentration of a compound at which the virus replication is inhibited with 50%, as measured by a 50% reduction of the eGFP fluorescent intensity compared to the virus control. The EC50 is calculated using linear interpolation (Table 1).

[2] = test system: DENV-3 strain H87; test: Tetravalent RT-qPCR assay, serotype 3; format: cell-based, Dengue virus; settings: for EC50: Dengue virus, DENV3, Vero, 72 h, RT-qPCR serotype 3 H87, Protocol A, Vero cells, day 3; for SI: RT-qPCR serotype 3 H87
Method: (§1) The antiviral activity of the compounds of the invention was tested against DENV-1 strain TC974#666 (NCPV), DENV-2 strain 16681, DENV-3 strain H87 (NCPV) and DENV-4 strain H241 (NCPV) in a RT-qPCR assay. Therefore, Vero cells were infected with either DENV-1, or -2, or -3, or -4 in the presence or absence of test compounds. At day 3 post-infection, the cells were lysed and cell lysates were used to prepare cDNA of both a viral target (the 3′UTR of DENV; Table 2) and a cellular reference gene (β-actin, Table 2). Subsequently, a duplex real time PCR was performed on a Lightcycler480 instrument. The generated Cp value is inversely proportional to the amount of RNA expression of these targets. Inhibition of DENV replication by a test compound result in a shift of Cp's for the 3′UTR gene. On the other hand, if a test compound is toxic to the cells, a similar effect on β-actin expression will be observed. The comparative ΔΔCp method is used to calculate EC50, which is based on the relative gene expression of the target gene (3′UTR) normalized with the cellular housekeeping gene (β-actin). In addition, CC50 values are determined based on the Cp values acquired for the housekeeping gene β-actin.
(§2) The culture medium consisted of minimal essential medium supplemented with 2% of heat-inactivated fetal calf serum, 0.04% gentamycin (50 mg/mL) and 2 mM of L-glutamine. Vero cells, obtained from ECACC, were suspended in culture medium and 75 μL/well was added in 96-well plates (10000 cells/well), which already contain the antiviral compounds. […] In addition, each plate contains wells which are assigned as virus controls (containing cells and virus in the absence of compound) and cell controls (containing cells in the absence of virus and compound). Once the cells were added in the plates, the plates were incubated in a fully humidified incubator (37° C., 5% CO2) until the next day. Dengue viruses serotype-1, 2, 3 and 4 were diluted in order to obtain a Cp of ˜22-24 in the assay. Therefore, 25 μL of virus suspension was added to all the wells containing test compound and to the wells assigned as virus control. In parallel, 25 μL of culture medium was added to the cell controls. Next, the plates were incubated for 3 days in a fully humidified incubator (37° C., 5% CO2). After 3 days, the supernatant was removed from the wells and the cells were washed twice with ice-cold PBS (˜100 μL). The cell pellets within the 96-well plates were stored at −80° C. for at least 1 day. Next, RNA was extracted using the Cells-to-CT™ lysis kit, according to the manufacturer's guideline (Life Technologies). The cell lysates can be stored at −80° C. or immediately used in the reverse transcription step.
(§3) In preparation of the reverse transcription step, mix A (table 3A) was prepared and 7.57 μL/well was dispensed in a 96-well plate. After addition of 5 μL of the cell lysates, a five minute denaturation step at 75° C. was performed (table 3B). Afterwards, 7.43 μL of mix B was added (table 3C) and the reverse transcription step was initiated (table 3D) to generate cDNA.
(§4) Finally, a RT-qPCR mix was prepared, mix C (table 4A), and 22.02 μL/well was dispensed in 96-well LightCycler qPCR plates to which 3 μL of cDNA was added and the qPCR was performed according to the conditions in table 4B on a LightCycler 480.
(§5) Using the LightCycler software and an in-house LIMS system, dose response curves for each compound were calculated and the half maximal effective concentration (EC50) and the half maximal cytotoxic concentration (CC50) were determined (Tables 5-8).

[3] = test system: Vero cells; settings: African green monkey
[4] = test system: DENV-2 strain 16681; test: Tetravalent RT-qPCR assay, serotype 2; format: cell-based, Dengue virus; settings: for EC50: Dengue virus, DENV2, Vero, 72 h, RT-qPCR serotype 2 16681, Protocol A, Vero cells, day 3; for SI: RT-qPCR serotype 2 16681
Method: as §1, §2, §3, §4, §5

[5] = test system: DENV-1 strain TC974#666; test: Tetravalent RT-qPCR assay, serotype 1; format: cell-based, Dengue virus; settings: for EC50: Dengue virus, DENV1, Vero, 72 h, RT-qPCR serotype 1 TC974#666, Protocol A, Vero cells, day 3; for SI: RT-qPCR serotype 1 TC974#666
Method: as §1, §2, §3, §4, §5

[6] = test system: DENV-4 strain H241; test: Tetravalent RT-qPCR assay, serotype 4; format: cell-based, Dengue virus; settings: for EC50: Dengue virus, DENV4, Vero, 72 h, RT-qPCR serotype 4 H241, Protocol A, Vero cells, day 3; for SI: RT-qPCR serotype 4 H241
Method: as §1, §2, §3, §4, §5

[7] = in vitro; settings: African green monkey
[8] = in vitro; format: cell-based; settings: African green monkey, CC50
Method: as §1, §2, §5

Row | Structure (SMILES) | EC50 [1] [nM] | SI [1] | EC50 ([2]; read-out: EC50) [nM] | SI [2] | CC50 [3] [nM] | EC50 [4] [nM] | SI [4] | EC50 ([5]; read-out: EC50) [nM] | SI [5] | EC50 [6] [nM] | SI [6] | CC50 [7] [nM] | CC50 at 3 days [8] [nM] | EC50 [2] [nM] | EC50 [5] [nM]
1 | COc1cc(NC(C(=O)c2c[nH]c3cc(F)c(C)cc23)c2ccc(F)cc2OC)cc(OCCO)c1 (single isomer, unassigned) [Compound 3A] | 1.1 | 3230 | 22 | 42 | 3800 | 1.6 | 1610 | 4 | 748 | 210 | 11 |  |  |  | 
2 | COc1cc(NC(C(=O)c2c[nH]c3cc(F)c(C)cc23)c2ccc(F)cc2OC)cc(OCCO)c1 (single isomer, unassigned) [Compound 3B] | 250 | 31 |  |  | 8000 |  |  |  |  |  |  |  |  |  | 
3 | COc1cc(NC(C(=O)c2c[nH]c3ccc(C)cc23)c2ccc(F)cc2OC)cc(OCCO)c1 (single isomer, unassigned) [Compound 5A] | 2.5 | 2910 | 50 | 207 |  | 2.7 | 4290 | 7 | 1430 | 270 | 21 | 5800 | 10000 |  | 
4 | COc1cc(NC(C(=O)c2c[nH]c3ccc(C)cc23)c2ccc(F)cc2OC)cc(OCCO)c1 (single isomer, unassigned) [Compound 5B] | 820 | 14 |  |  | 11000 |  |  |  |  |  |  |  |  |  | 
5 | COc1cc(NC(C(=O)c2c[nH]c3cc4c(cc23)CCO4)c2ccc(F)cc2OC)cc(OCCO)c1 (single isomer, unassigned) [Compound 7B] | 630 | 19 |  |  | 12000 |  |  |  |  |  |  |  |  |  | 
6 | COc1cc(NC(C(=O)c2c[nH]c3c4c(ccc23)OCC4)c2ccc(F)cc2OC)cc(OCCO)c1 (single isomer, unassigned) [Compound 8B] | 820 | 14 |  |  | 12000 |  |  |  |  |  |  |  |  |  | 
7 | COc1cc(NC(C(=O)c2c[nH]c3cc(F)c(C)cc23)c2ccc(Cl)cc2OC)cc(OCCO)c1 (single isomer, unassigned) [Compound 9B] | 0.44 | 7480 | 16 | 234 |  | 0.69 | 5540 | 1.4 | 1700 | 92 | 28 |  | 3000 |  | 
8 | COc1cc(NC(C(=O)c2c[nH]c3cc4c(cc23)CCO4)c2ccc(Cl)cc2OC)cc(OCCO)c1 (single isomer, unassigned) [Compound 10B] | 0.32 | 19700 | 22 | 316 | 9500 | 0.4 | 23600 | 3.2 | 3340 | 110 | >29 |  |  |  | 
9 | COc1cc(NC(C(=O)c2c[nH]c3c4c(ccc23)OCC4)c2ccc(Cl)cc2OC)cc(OCCO)c1 (single isomer, unassigned) [Compound 11B] | 170 | 49 |  |  | 8200 |  |  |  |  |  |  |  |  |  | 
10 | [2H]C(Nc1cc(OC)cc(OCCO)c1)(C(=O)c1c[nH]c2cc(F)ccc12)c1ccc(Cl)cc1OC (single isomer, unassigned) [Compound 13B-D] | 170 | 54 |  |  | 9600 |  |  |  |  |  |  |  |  |  | 
11 | COc1cc(NC(C(=O)c2c[nH]c3cc(F)ccc23)c2ccc(Cl)cc2OC)cc(OCCOP(=O)(O)O)c1 (single isomer, unassigned) [Compound 13B-P] | 13 | 822 |  |  | 11000 |  |  |  |  |  |  |  |  |  | 
12 | [2H]C(Nc1cc(OC)cc(OCCO)c1)(C(=O)c1c[nH]c2cc(OC)c(C)cc12)c1ccc(Cl)cc1OC (single isomer, unassigned) [Compound 14A-D] | 0.26 | 17600 |  | >261 |  | 0.29 | >11900 |  | 1070 | 74 | >46 | 3600 | > 2300 | 9.8 | 3
13 | [2H]C(Nc1cc(OC)cc(OCCO)c1)(C(=O)c1c[nH]c2cc(OC)c(C)cc12)c1ccc(Cl)cc1OC (single isomer, unassigned) [Compound 14B-D] | 110 | 52 |  |  | 6000 |  |  |  |  |  |  |  |  |  | 
14 | COc1cc(NC(C(=O)c2c[nH]c3ccc(S(F)(F)(F)(F)F)cc23)c2ccc(Cl)cc2OC)cc(OCCO)c1 (single isomer, unassigned) [Compound 15A] | 0.17 | 16000 | 4.4 | 361 | 2700 | 0.11 | 21200 | 0.13 | 16100 | 14 | 84 |  |  |  | 
15 | COc1cc(NC(C(=O)c2c[nH]c3ccc(S(F)(F)(F)(F)F)cc23)c2ccc(Cl)cc2OC)cc(OCCO)c1 (single isomer, unassigned) [Compound 15B] | 13 | 460 |  |  | 5800 |  |  |  |  |  |  |  |  |  | 
